According to patent US7432260B2, “Pyrimidine compounds” (Cyclacel Limted, priority 2002, dated 2008):

Key:
CDK1/cyclin B = CDK1/cyclin B (Homo sapiens, UniProt P06493); test: Kinase assay CDK1/cyclin B; type: biochemical; conditions: Table 2; read-out: Kinase Inhibition IC50 CDK1 cyclin B
Protocol: (§1) Kinase assays. […] This was achieved by measurement of incorporation of radioactive phosphate from ATP into appropriate polypeptide substrates. Recombinant protein kinases and kinase complexes were produced or obtained commercially. Assays were performed using 96-well plates and appropriate assay buffers (typically 25 mM β-glycerophosphate, 20 mM MOPS, 5 mM EGTA, 1 mM DTT, 1 mM […], pH 7.4), into which were added 2-4 μg of active enzyme with appropriate substrates. The reactions were initiated by addition of Mg/ATP mix (15 mM MgCl2+100 μM ATP with 30-50 kBq per well of [γ-^32P]-ATP) and mixtures incubated as required at 30° C. Reactions were stopped on ice, followed by filtration through p81 filterplates or GF/C filterplates (Whatman Polyfiltronics, Kent, UK). After washing 3 times with 75 mM aq orthophosphoric acid, plates were dried, scintillant added and incorporated radioactivity measured in a scintillation counter (TopCount, Packard Instruments, Pangbourne, Berks, UK). Compounds for kinase assay were made-up as 10 mM stocks in DMSO and diluted into 10% DMSO inrassay buffer.

Saos-2 = test: 72-h MTT cytotoxicity assay Saos-2; type: cell-based; conditions: Homo sapiens, SAOS-2, 72 h, Table 4
Protocol: (§2) MTT cytotoxicity assay. […] Standard 72-h MTT (thiazolyl blue; 3-[4,5-dimethylthiazol-2-yl]-2,5-diphenyltetrazolium bromide) assays were performed (Haselsberger, K.; Peterson, D. C.; Thomas, D. G.; Darling, J. L. Anti Cancer Drugs 1996, 7, 331-8; Loveland, B. E.; Johns, T. G.; Mackay, I. R.; Vaillant, F.; Wang, Z. X.; Hertzog, P. J. Biochemistry International 1992, 27, 501-10). In short: cells were seeded into 96-well plates according to doubling time and incubated overnight at 37° C. Test compounds were made up in DMSO and a 1/3 dilution series prepared in 100 μL cell media, added to cells (in triplicates) and incubated for 72 ho at 37° C. MTT was made up as a stock of 5 mg/mL in cell media and filter-sterilised. Media was removed from cells followed by a wash with 200 μL PBS.
(§3) MTT solution was then added at 20 μL per well and incubated in the dark at 37° C. for 4 h. MTT solution was removed and cells again washed with 200 μL PBS. MTT dye was solubilised with 200 μL per well of DMSO with agitation.

HT29 = test: 72-h MTT cytotoxicity assay HT29; type: cell-based; conditions: Homo sapiens, HT-29, 72 h, Table 4
Protocol: as §2, §3

A549 = test: 72-h MTT cytotoxicity assay A549; type: cell-based; conditions: Homo sapiens, A549, 72 h, Table 4
Protocol: as §2, §3

CDK4/cyclin D1 = CDK4/cyclin D1 (Homo sapiens, UniProt P11802); test: Kinase assay CDK4/cyclin D1; type: biochemical; conditions: Table 2; read-out: Kinase Inhibition IC50 CDK4 cyclin D1
Protocol: as §1

CDK7/cyclin H = CDK7/cyclin H (Homo sapiens, UniProt P50613); test: CDK7 assay; type: biochemical; conditions: Table 2; read-out: Kinase Inhibition IC50 CDK7 cyclin H
Protocol: as §1
(§4) CDK 7 and 9 assays. CTD peptide substrate (biotinyl-Ahx-(Tyr-Ser-Pro-Thr-Ser-Pro-Ser)4-NH2; 1-2 mg/mL) and recombinant human CDK7/cyclin H, CDK9/cyclin T1, or CDK9/cyclin K (0.5-2 μg) were incubated for 45 min at 30° C. in the presence of varying amounts of test compound in 20 mM MOPS pH 7.2, 25 mM β-glycerophosphate, 5 mM EGTA, 1 mM DTT, 1 mM sodium vanadate, 15 mM MgCl2, and 100 μM ATP (containing a trace amount of ^32PγATP) in a total volume of 25 μL in a 96-well microtiter plate. The reaction was stopped by placing the plate on ice for 2 min. Avidin (50 μg) was added to each well, and the plate was incubated at room temp for 30 min. The samples were transferred to a 96-well P81 filter plate, and washed (4×200 μL per well) with 75 mM phosphoric acid. Microscint 40 scintillation liquid (50 μL) was added to each well, and the amount of ^32P incorporation for each sample was measured using a Packard Topcount microplate scintillation counter.

CDK2/cyclin A = CDK2/cyclin A (Homo sapiens, UniProt P24941); test: Kinase assay CDK2/cyclin A; type: biochemical; conditions: Table 2; read-out: Kinase Inhibition IC50 CDK2 cyclin A
Protocol: as §1

CDK9/cyclin T1 = CDK9/cyclin T1 (Homo sapiens, UniProt P50750); test: CDK9 assay; type: biochemical; conditions: Table 2; read-out: Kinase Inhibition IC50 CDK9 cyclin T1
Protocol: as §1, §4

CDK2/cyclin E = CDK2/cyclin E (Homo sapiens, UniProt P24941); test: Kinase assay CDK2/cyclin E; type: biochemical; conditions: Table 2; read-out: Kinase Inhibition IC50 CDK2 cyclin E
Protocol: as §1

GSK-3β = GSK-3β (Homo sapiens, UniProt P49841); test: Kinase assay GSK-3β; type: biochemical; conditions: Table 2; read-out: Kinase Inhibition IC50 GSK-3β
Protocol: as §1

Chain of GSK-3β (P49841 whole entry): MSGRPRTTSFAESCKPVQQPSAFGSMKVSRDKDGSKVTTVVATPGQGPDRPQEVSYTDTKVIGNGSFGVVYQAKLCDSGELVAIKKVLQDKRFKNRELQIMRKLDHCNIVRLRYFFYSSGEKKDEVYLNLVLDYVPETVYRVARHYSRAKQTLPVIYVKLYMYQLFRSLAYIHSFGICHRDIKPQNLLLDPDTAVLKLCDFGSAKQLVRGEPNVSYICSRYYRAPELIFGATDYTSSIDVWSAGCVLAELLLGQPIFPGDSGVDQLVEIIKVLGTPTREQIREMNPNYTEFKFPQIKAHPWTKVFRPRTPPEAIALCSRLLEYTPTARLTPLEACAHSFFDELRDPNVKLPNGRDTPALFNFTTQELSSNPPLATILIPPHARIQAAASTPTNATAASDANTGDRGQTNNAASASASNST
Chain of CDK9/cyclin T1 (P50750 whole entry): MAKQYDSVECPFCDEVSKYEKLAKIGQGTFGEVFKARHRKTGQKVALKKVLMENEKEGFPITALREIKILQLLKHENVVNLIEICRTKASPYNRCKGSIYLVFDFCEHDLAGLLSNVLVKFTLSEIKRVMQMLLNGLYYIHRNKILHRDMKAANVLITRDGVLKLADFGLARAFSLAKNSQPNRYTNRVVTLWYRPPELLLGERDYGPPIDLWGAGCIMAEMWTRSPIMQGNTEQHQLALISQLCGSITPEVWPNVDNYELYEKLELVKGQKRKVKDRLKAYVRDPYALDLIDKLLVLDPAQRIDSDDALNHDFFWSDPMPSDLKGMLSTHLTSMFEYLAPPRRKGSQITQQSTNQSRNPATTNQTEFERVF
Chain of CDK9/cyclin T1 (O60563 whole entry partner): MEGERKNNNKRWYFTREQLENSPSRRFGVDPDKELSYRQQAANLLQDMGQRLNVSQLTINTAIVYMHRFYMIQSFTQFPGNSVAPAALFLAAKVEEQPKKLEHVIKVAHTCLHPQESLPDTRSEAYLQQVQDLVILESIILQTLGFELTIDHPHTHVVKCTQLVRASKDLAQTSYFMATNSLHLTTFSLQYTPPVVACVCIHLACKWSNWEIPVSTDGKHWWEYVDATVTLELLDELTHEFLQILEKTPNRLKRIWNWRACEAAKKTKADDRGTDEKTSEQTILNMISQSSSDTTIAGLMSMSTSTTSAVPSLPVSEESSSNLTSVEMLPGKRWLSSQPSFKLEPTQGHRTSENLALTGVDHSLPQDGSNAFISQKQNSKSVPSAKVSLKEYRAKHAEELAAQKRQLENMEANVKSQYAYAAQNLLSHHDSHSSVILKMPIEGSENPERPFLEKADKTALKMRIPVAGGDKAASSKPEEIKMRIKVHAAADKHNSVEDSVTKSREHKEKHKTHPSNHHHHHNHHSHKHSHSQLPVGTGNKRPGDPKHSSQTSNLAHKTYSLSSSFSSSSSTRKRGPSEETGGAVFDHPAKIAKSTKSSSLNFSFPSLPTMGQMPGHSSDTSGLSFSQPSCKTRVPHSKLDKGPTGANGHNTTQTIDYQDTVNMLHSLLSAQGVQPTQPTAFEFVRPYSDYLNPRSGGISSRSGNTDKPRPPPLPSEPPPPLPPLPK
Chain of CDK4/cyclin D1 (P11802 whole entry): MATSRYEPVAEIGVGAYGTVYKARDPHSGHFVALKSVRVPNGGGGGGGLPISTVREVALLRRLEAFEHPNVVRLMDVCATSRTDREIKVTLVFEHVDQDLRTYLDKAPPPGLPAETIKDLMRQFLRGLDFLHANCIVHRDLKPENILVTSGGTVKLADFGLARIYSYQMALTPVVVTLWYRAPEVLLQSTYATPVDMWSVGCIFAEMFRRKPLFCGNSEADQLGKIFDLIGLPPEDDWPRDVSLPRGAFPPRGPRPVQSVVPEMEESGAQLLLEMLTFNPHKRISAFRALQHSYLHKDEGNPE
Chain of CDK4/cyclin D1 (P24385 whole entry partner): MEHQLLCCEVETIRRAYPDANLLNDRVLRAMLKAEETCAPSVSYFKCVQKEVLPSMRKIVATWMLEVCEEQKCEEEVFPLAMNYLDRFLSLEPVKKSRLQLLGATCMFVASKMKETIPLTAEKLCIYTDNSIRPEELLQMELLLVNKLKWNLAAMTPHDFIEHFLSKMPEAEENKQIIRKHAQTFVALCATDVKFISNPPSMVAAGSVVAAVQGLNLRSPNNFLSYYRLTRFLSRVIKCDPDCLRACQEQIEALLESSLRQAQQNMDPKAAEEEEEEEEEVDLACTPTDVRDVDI
Chain of CDK1/cyclin B (P06493 whole entry): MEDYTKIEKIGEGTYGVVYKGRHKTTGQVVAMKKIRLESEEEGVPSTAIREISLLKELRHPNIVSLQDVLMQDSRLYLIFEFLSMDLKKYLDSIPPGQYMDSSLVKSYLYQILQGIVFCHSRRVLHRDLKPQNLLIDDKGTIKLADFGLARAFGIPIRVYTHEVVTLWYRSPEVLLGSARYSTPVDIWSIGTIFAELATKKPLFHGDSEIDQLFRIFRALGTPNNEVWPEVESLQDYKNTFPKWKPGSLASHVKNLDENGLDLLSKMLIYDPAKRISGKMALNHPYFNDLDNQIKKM
Chain of CDK1/cyclin B (P14635 whole entry partner): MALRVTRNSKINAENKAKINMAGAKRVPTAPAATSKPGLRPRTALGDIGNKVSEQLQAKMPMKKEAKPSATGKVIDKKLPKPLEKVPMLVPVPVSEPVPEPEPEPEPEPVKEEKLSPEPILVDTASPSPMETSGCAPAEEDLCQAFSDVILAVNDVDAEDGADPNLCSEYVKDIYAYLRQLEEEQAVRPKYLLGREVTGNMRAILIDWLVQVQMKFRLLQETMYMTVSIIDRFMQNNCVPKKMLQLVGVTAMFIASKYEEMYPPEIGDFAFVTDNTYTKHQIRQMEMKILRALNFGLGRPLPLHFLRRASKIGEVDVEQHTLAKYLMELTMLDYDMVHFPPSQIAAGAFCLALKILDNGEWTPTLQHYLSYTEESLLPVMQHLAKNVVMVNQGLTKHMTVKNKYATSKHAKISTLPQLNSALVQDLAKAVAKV
Chain of CDK7/cyclin H (P50613 whole entry): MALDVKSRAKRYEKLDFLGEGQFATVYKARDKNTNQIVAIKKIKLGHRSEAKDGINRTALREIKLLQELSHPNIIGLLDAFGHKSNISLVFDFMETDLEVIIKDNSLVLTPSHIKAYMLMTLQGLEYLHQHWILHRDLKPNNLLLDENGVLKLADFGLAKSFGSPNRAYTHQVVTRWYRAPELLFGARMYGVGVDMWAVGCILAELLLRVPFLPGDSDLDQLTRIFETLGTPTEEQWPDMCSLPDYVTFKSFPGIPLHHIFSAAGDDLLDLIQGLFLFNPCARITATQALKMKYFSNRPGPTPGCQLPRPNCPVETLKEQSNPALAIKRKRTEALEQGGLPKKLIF

Structure (SMILES) | IC50 (CDK1/cyclin B) [nM] | IC50 (Saos-2) [nM] | IC50 (HT29) [nM] | IC50 (A549) [nM] | IC50 (CDK4/cyclin D1) [nM] | IC50 (CDK7/cyclin H) [nM] | IC50 (CDK2/cyclin A) [nM] | IC50 (CDK9/cyclin T1) [nM] | IC50 (CDK2/cyclin E) [nM] | IC50 (GSK-3β) [nM]
Cc1nc(C)c(-c2ccnc(Nc3ccc(N4CCN(CCO)CC4)cc3)n2)s1 [Compound 9, 2-(4-{4-[4-(2,4-Dimethyl-thiazol-5-yl)-pyrimidin-2-ylamino]-phenyl}-piperazin-1-yl)-ethanol] | 5200 | 2000 | 2000 | 3000 | 430 | 1300 | 1200 | 210 | 2200 | 
Cc1nc(NC(=O)CCN)sc1-c1ccnc(Nc2cccc([N+](=O)[O-])c2)n1 [Compound 13, 3-Amino-N-{4-methyl-5-[2-(3-nitro-phenylamino)-pyrimidin-4-yl]-thiazol-2-yl}-propionamide] | 5600 | 1900 | 2800 | 3100 | 670 | 370 | 570 | 42 | 280 | 
Cc1nc(NC(=O)CNCCOCCO)sc1-c1ccnc(Nc2ccc(N(C)C)cc2)n1 [Compound 29, N-{5-[2-(4-Dimethylamino-phenylamino)-pyrimidin-4-yl]-4-methyl-thiazol-2-yl}-2-[2-(2-hydroxy-ethoxy)-ethylamino]-acetamide] | 860 | 720 | 2600 | 690 | 1100 | 1200 | 490 |  | 470 | 560
Cc1nc(NC(=O)CCl)sc1-c1ccnc(Nc2ccc(Cl)cc2)n1 [Compound 34, 2-Chloro-N-{5-[2-(4-chloro-phenylamino)-pyrimidin-4-yl]-4-methyl-thiazol-2-yl}-acetamide] |  | 3300 | 3200 | 3900 | 7000 |  |  |  | 1400 | 730
CCN(CC)CCNCCC(=O)Nc1nc(C)c(-c2ccnc(Nc3ccc(Cl)cc3)n2)s1 [Compound 36, N-{5-[2-(4-Chloro-phenylamino)-pyrimidin-4-yl]-4-methyl-thiazol-2-yl}-3-(2-diethylamino-ethylamino)-propionamide] | 33000 | 38000 | 9600 | 26000 | 8800 | 4000 | 13000 | 4800 | 3400 | 
Cc1nc(NC(=O)CCNCCN2CCOCC2)sc1-c1ccnc(Nc2ccc(Cl)cc2)n1 [Compound 37, N-{5-[2-(4-Chloro-phenylamino)-pyrimidin-4-yl]-4-methyl-thiazol-2-yl}-3-(2-morpholin-4-yl-ethylamino)-propionamide] | > 100000 | 73000 | 15000 | 35000 | 18000 |  | 16000 | 6300 | 8000 | 
COc1ccc(Nc2nccc(-c3sc(NC(=O)CCN4CCOCC4)nc3C)n2)cc1 [Compound 38, N-{5-[2-(4-Methoxy-phenylamino)-pyrimidin-4-yl]-4-methyl-thiazol-2-yl}-3-morpholin-4-yl-propionamide] | 1900 | 5300 | 1700 | 2700 | 1800 |  | 580 | 1100 | 2700 | 
COc1cccc(Nc2nccc(-c3sc(NC(=O)CCN4CCOCC4)nc3C)n2)c1 [Compound 39, N-{5-[2-(3-Methoxy-phenylamino)-pyrimidin-4-yl]-4-methyl-thiazol-2-yl}-3-morpholin-4-yl-propionamide] | 11000 | 950 | 720 | 800 | 32000 |  | 2700 | 15000 | 1200 | 
COc1ccc(Nc2nccc(-c3sc(NC(=O)CCN4CCN(C)CC4)nc3C)n2)cc1 [Compound 40, N-{5-[2-(4-Methoxy-phenylamino)-pyrimidin-4-yl]-4-methyl-thiazol-2-yl}-3-(4-methyl-piperazin-1-yl)-propionamide] | 61000 | 4300 | 730 | 4400 | 7400 |  | 14000 | 8900 | 64000 | 
CC(=O)Nc1ccc(Nc2nccc(-c3sc(C)nc3C)n2)cc1 [Compound 45, N-{4-[4-(2,4-Dimethyl-thiazol-5-yl)-pyrimidin-2-ylamino]-phenyl}-acetamide] | 2500 | 2800 | 2200 | 2600 | 370 | 17000 | 840 | 240 | 660 | 
CCNc1nc(C)c(-c2ccnc(Nc3cccc(CO)c3)n2)s1 [Compound 68, {3-[4-(2-Ethylamino-4-methyl-thiazol-5-yl)-pyrimidin-2-ylamino]-phenyl}-methanol] | 150 |  |  |  | 42 | 480 | 61 |  | 65 | 820
Cc1nc(N)sc1-c1ccnc(Nc2ccc(S(C)(=O)=O)cc2)n1 [Compound 76, [4-(2-Amino-4-methyl-thiazol-5-yl)-pyrimidin-2-yl]-(4-methanesulfonyl-phenyl)-amine] | 1800 | 1300 | 1800 | 5800 | 3200 | 11000 | 140 |  | 150 | 5400
CNc1nc(C)c(-c2ccnc(Nc3cccc(CNS(=O)(=O)C(F)(F)F)c3)n2)s1 [Compound 82, C,C,C-Trifluoro-N-{3-[4-(4-methyl-2-methylamino-thiazol-5-yl)-pyrimidin-2-ylamino]-benzyl}-methanesulfonamide] | 2700 |  |  |  | 2300 | 4000 | 1300 |  | 14 | 1200
CNc1nc(C)c(-c2ccnc(Nc3cccc(CNS(C)(=O)=O)c3)n2)s1 [Compound 83, N-{3-[4-(4-Methyl-2-methylamino-thiazol-5-yl)-pyrimidin-2-ylamino]-benzyl}-methanesulfonamide] | 480 |  |  |  | 670 | 370 | 150 |  | 25 | 1000
Cc1nc(N)sc1-c1ccnc(Nc2cccc(S(C)(=O)=O)c2)n1 [Compound 84, [4-(2-Amino-4-methyl-thiazol-5-yl)-pyrimidin-2-yl]-(3-methanesulfonyl-phenyl)-amine] | 140 |  |  |  | 300 | 430 | 50 |  | 76 | 300
Cc1c(-c2ccnc(Nc3ccc(N4CCOCC4)cc3)n2)sc(=O)n1C [Compound 92, 3,4-Dimethyl-5-[2-(4-morpholin-4-yl-phenylamino)-pyrimidin-4-yl]-3H-thiazol-2-one] | 15000 |  |  |  | 1300 | 2800 | 1200 |  | 640 | 470
